According to ChEMBL document CHEMBL3399967, “Design and discovery of 2-oxochromene derivatives as liver X receptor β-selective agonists” (Bioorg Med Chem Lett, 2015):

Assays:
[1] = biological target: T1, Oxysterols receptor LXR-beta (Homo sapiens, UniProt P55055); experiment: Agonist activity at Gal4-tagged LXRbeta (unknown origin) expressed in CHOK1 cells after 24 hrs by luciferase reporter gene assay; format: cell-based, CHO-K1
T1 sequence (P55055 whole entry): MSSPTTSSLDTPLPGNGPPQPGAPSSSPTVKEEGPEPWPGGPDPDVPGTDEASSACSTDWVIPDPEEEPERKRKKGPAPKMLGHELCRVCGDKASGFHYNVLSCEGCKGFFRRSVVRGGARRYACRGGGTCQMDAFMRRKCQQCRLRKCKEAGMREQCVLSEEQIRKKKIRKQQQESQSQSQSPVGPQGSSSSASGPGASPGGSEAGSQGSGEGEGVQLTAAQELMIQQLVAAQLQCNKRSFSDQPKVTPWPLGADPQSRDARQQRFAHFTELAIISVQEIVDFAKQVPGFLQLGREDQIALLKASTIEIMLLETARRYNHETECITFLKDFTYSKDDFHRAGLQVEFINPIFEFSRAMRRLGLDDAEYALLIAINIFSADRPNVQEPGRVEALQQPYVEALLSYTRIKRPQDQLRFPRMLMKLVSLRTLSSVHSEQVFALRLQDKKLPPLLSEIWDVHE

[2] = biological target: T2, Oxysterols receptor LXR-alpha (Homo sapiens, UniProt Q13133); experiment: Agonist activity at Gal4-tagged LXRalpha (unknown origin) expressed in CHOK1 cells after 24 hrs by luciferase reporter gene assay; format: cell-based, CHO-K1
T2 sequence (Q13133 whole entry): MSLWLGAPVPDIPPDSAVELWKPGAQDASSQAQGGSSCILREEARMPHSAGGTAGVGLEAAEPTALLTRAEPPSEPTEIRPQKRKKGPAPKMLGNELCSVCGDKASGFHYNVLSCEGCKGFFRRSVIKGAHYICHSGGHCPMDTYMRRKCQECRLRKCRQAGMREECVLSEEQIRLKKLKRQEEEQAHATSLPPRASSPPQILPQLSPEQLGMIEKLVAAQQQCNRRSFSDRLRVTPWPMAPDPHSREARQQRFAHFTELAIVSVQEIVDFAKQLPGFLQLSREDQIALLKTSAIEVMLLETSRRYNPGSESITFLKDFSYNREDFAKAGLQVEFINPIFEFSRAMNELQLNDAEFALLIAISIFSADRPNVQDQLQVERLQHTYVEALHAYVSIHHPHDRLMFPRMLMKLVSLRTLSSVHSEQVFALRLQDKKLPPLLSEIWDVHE

[3] = tested on: Hamster; experiment: Effect on area of lipid accumulation in high-fat-and-cholesterol diet fed Male Bio F1B hamster aortic arch at 10 mg/kg, po relative to control; format: functional, Cricetinae
[4] = tested on: Hamster; experiment: Effect on Plasma triglyceride level in high-fat-and-cholesterol diet fed Male Bio F1B hamster at 3 to 10 mg/kg, po relative to control; format: organism-based; set-up: dose 3-10 mg/kg, route oral; conditions: cricetinae, in vivo
[5] = tested on: Hamster; experiment: Effect on Plasma triglyceride level in high-fat-and-cholesterol diet fed Male Bio F1B hamster at 10 mg/kg, po relative to control; format: organism-based; set-up: dose 10 mg/kg, route oral; conditions: cricetinae, in vivo
[6] = tested on: Hamster; experiment: Effect on HDL-C level in high-fat-and-cholesterol diet fed Male Bio F1B hamster plasma at 3 mg/kg, po relative to control; format: functional, Cricetinae
[7] = tested on: Hamster; experiment: Effect on area of lipid accumulation in high-fat-and-cholesterol diet fed Male Bio F1B hamster aortic arch at 3 mg/kg, po relative to control; format: functional, Cricetinae
[8] = tested on: Hamster; experiment: Effect on total cholesterol level in high-fat-and-cholesterol diet fed Male Bio F1B hamster plasma at 10 mg/kg, po relative to control; format: functional, Cricetinae
[9] = tested on: Hamster; experiment: Effect on Plasma triglyceride level in high-fat-and-cholesterol diet fed Male Bio F1B hamster at 3 mg/kg, po relative to control; format: organism-based; set-up: dose 3 mg/kg, route oral; conditions: cricetinae, in vivo
[10] = tested on: Hamster; experiment: Effect on HDL-C level in high-fat-and-cholesterol diet fed Male Bio F1B hamster plasma at 3 to 10 mg/kg, po relative to control; format: functional, Cricetinae; conditions: dose mg/kg 3-10
[11] = tested on: Hamster; experiment: Effect on HDL-C level in high-fat-and-cholesterol diet fed Male Bio F1B hamster plasma at 10 mg/kg, po relative to control; format: functional, Cricetinae
[12] = tested on: Hamster; experiment: Effect on total cholesterol level in high-fat-and-cholesterol diet fed Male Bio F1B hamster plasma at 3 mg/kg, po relative to control; format: functional, Cricetinae
[13] = tested on: HepG2; experiment: Induction of ABCA1 mRNA expression in human HepG2 cells at 5 uM relative to control; format: functional
[14] = tested on: HepG2; experiment: Ratio of induction of ABCA1 mRNA expression to SREBP-1c mRNA expression in human HepG2 cells at 5 uM; format: functional
[15] = tested on: HepG2; experiment: Induction of SREBP-1c mRNA expression in human HepG2 cells at 5 uM relative to control; format: functional
[16] = tested on: Hamster; experiment: Effect on area of lipid accumulation in high-fat-and-cholesterol diet fed Male Bio F1B hamster aortic arch at 30 mg/kg, po relative to control; format: functional, Cricetinae
[17] = Plasma concentration in Golden Syrian hamster at 300 mg/kg, po after 1 hr; format: ADME, organism-based, Mesocricetus auratus; set-up: dose 300 mg/kg, route oral
[18] = tested on: Hamster; experiment: Effect on total cholesterol level in high-fat-and-cholesterol diet fed Male Bio F1B hamster plasma at 30 mg/kg, po relative to control; format: functional, Cricetinae
[19] = Plasma concentration in Golden Syrian hamster at 300 mg/kg, po after 0.5 hrs; format: ADME, organism-based, Mesocricetus auratus; set-up: dose 300 mg/kg, route oral
[20] = tested on: Syrian golden hamster; experiment: Plasma concentration in Golden Syrian hamster at 100 mg/kg, po; format: ADME, organism-based, Mesocricetus auratus; set-up: dose 100 mg/kg, route oral; conditions: in vivo
[21] = tested on: Hamster; experiment: Effect on Plasma triglyceride level in high-fat-and-cholesterol diet fed Male Bio F1B hamster at 100 mg/kg, po relative to control; format: organism-based; set-up: dose 100 mg/kg, route oral; conditions: cricetinae, in vivo
[22] = tested on: Hamster; experiment: Effect on Plasma triglyceride level in high-fat-and-cholesterol diet fed Male Bio F1B hamster at 300 mg/kg, po relative to control; format: organism-based; set-up: dose 300 mg/kg, route oral; conditions: cricetinae, in vivo
[23] = tested on: Hamster; experiment: Effect on total cholesterol level in high-fat-and-cholesterol diet fed Male Bio F1B hamster plasma at 300 mg/kg, po relative to control; format: functional, Cricetinae
[24] = tested on: Hamster; experiment: Effect on area of lipid accumulation in high-fat-and-cholesterol diet fed Male Bio F1B hamster aortic arch at 300 mg/kg, po relative to control; format: functional, Cricetinae, Pharyngeal arch artery
[25] = tested on: Hamster; experiment: Effect on area of lipid accumulation in high-fat-and-cholesterol diet fed Male Bio F1B hamster aortic arch at 100 mg/kg, po relative to control; format: functional, Cricetinae, Pharyngeal arch artery
[26] = tested on: Hamster; experiment: Effect on Plasma triglyceride level in high-fat-and-cholesterol diet fed Male Bio F1B hamster at 30 mg/kg, po relative to control; format: organism-based; set-up: dose 30 mg/kg, route oral; conditions: cricetinae, in vivo
[27] = Plasma concentration in Golden Syrian hamster at 300 mg/kg, po after 2 hrs; format: ADME, organism-based, Mesocricetus auratus; set-up: dose 300 mg/kg, route oral
[28] = tested on: Hamster; experiment: Effect on HDL-C level in high-fat-and-cholesterol diet fed Male Bio F1B hamster plasma at 30 mg/kg, po relative to control; format: functional, Cricetinae
[29] = tested on: Hamster; experiment: Effect on HDL-C level in high-fat-and-cholesterol diet fed Male Bio F1B hamster plasma at 300 mg/kg, po relative to control; format: functional, Cricetinae
[30] = tested on: Hamster; experiment: Effect on HDL-C level in high-fat-and-cholesterol diet fed Male Bio F1B hamster plasma at 100 mg/kg, po relative to control; format: functional, Cricetinae
[31] = tested on: Hamster; experiment: Effect on total cholesterol level in high-fat-and-cholesterol diet fed Male Bio F1B hamster plasma at 100 mg/kg, po relative to control; format: functional, Cricetinae

With `CCCc1cc2c(C(F)(F)F)cc(=O)oc2c(CCC)c1OCCCCN1C(=O)CCC1=O` the EC50 ([1]; read-out: EC50) was 1.4 µM.

With `CCCc1cc2c(C(F)(F)F)cc(=O)oc2c(CCC)c1OCCCCN1C(=O)NC(C)(c2ccc(C(=O)O)cc2)C1=O` (centres undefined) the EC50 ([2]; cho-k1) was “Not Active” and the EC50 ([1]; cho-k1) was “Not Active”.

In the case of `CCCc1cc2c(C(F)(F)F)cc(=O)oc2c(CCC)c1OCCCCN1C(=O)NC(C)(c2ccc(N(C)C)cc2)C1=O` (centres undefined), the EC50 ([2]; cho-k1) is reported as “Not Active” and the EC50 ([1]; cho-k1) is reported as “Not Active”.

With `O=S(=O)(c1ccccc1)N(CC(F)(F)F)c1ccc(C(O)(C(F)(F)F)C(F)(F)F)cc1` [T091317] the Activity [3] was 52%, the Activity [4] was 50% and the Activity [5] was 243%. It also gave an Activity [6] of 67%, an Activity [7] of 53% and an Activity [8] of 127%. For the same compound, the Activity [9] was 206%, the “fold change (FC)” value [10] was 3 and the Activity [11] was 59%. For the same compound, the Activity [12] was 123%.

For `CC(C)c1cc(=O)oc2c3c4c(cc12)CCCN4CCC3`, the “fold change (FC)” value [13] was 5, the Ratio [14] was 3.6 and the “fold change (FC)” value [15] was 1.4.

For `CCN(CC)c1ccc2c(C(F)(F)F)cc(=O)oc2c1`, the “fold change (FC)” value [13] was 1.3, the Ratio [14] was 0.4 and the “fold change (FC)” value [15] was 3.3.

With `CCCc1c(OCCCCN2C(=O)NC(C)(c3ccc(O)cc3)C2=O)ccc2c(C(F)(F)F)cc(=O)oc12` (centres undefined) the EC50 ([2]; cho-k1) was “Not Active”.

With `CCCc1cc2c(C(F)(F)F)cc(=O)oc2c(CCC)c1OCCCCN1C(=O)N(C)C(C)(C)C1=O` the EC50 ([2]; read-out: EC50) was 11 µM and the EC50 ([1]; read-out: EC50) was 4.7 µM.

Work on `CCCc1c(OCCCCN2C(=O)NC(C)(c3ccc4c(c3)OCO4)C2=O)ccc2c(C(F)(F)F)cc(=O)oc12` (centres undefined) yielded an EC50 ([1]; read-out: EC50) of 1.1 µM.

`CCCc1cc2c(C(F)(F)F)cc(=O)oc2c(CCC)c1OCCCCN1CCOC1=O` gave an EC50 ([1]; read-out: EC50) of 2.2 µM.

In the case of `CCCc1cc2c(C(F)(F)F)cc(=O)oc2c(CCC)c1OCCCCN1C(=O)NC(C)(c2ccc(OC)c(OC)c2)C1=O` (centres undefined), the EC50 ([2]; cho-k1) is reported as “Not Active” and the EC50 ([1]; cho-k1) is reported as “Not Active”.

For `CCCc1c(OCCCCN2C(=O)NC(C)(c3ccc(C(=O)O)cc3)C2=O)ccc2c(C(F)(F)F)cc(=O)oc12` (centres undefined), the EC50 ([2]; cho-k1) was “Not Active” and the EC50 ([1]; cho-k1) was “Not Active”.

With `CCCc1cc2c(C(F)(F)F)cc(=O)oc2c(CCC)c1OCCCCN1C(=O)NC(C)C1=O` (centres undefined) the EC50 ([2]; read-out: EC50) was 1.5 µM and the EC50 ([1]; read-out: EC50) was 1.3 µM.

For `CCCc1cc2c(C(F)(F)F)cc(=O)oc2c(CCC)c1OCCCCN1C(=O)NC(C)(c2cccc(OC)c2)C1=O` (centres undefined), the EC50 ([2]; cho-k1) was “Not Active” and the EC50 ([1]; cho-k1) was “Not Active”.

In the case of `CCCc1cc2c(C(F)(F)F)cc(=O)oc2c(CCC)c1OCCCCN1C(=O)N(C)C(C)(c2ccccc2)C1=O` (centres undefined), the EC50 ([2]; cho-k1) is reported as “Not Active” and the EC50 ([1]; cho-k1) is reported as “Not Active”.

`CCCc1c(OCCCCN2C(=O)NC(C)(c3ccc(OC)cc3)C2=O)ccc2c(C(F)(F)F)cc(=O)oc12` (centres undefined) showed an Activity [16] of 119%, a concentration at 1 h [17] of 53 ng/mL and an Activity [18] of 115%. The concentration at 0.5 h [19] was 50 ng/mL, the Cp [20] was “Not Active” and the Activity [21] was 131%. For the same compound, the Activity [22] was 96%, the Activity [23] was 98% and the Activity [24] was 56%. The Activity [25] was 102%, the Activity [26] was 136% and the concentration at 2 h [27] was 59 ng/mL. It also gave an Activity [28] of 96%, an Activity [29] of 113% and an Activity [30] of 96%. It also gave an Activity [31] of 101%.

For `CCCc1cc2c(C(F)(F)F)cc(=O)oc2c(CCC)c1OCCCCN1C(=O)NC(C)(c2ccc(O)cc2)C1=O` (centres undefined), the EC50 ([2]; cho-k1) was “Not Active” and the EC50 ([1]; cho-k1) was “Not Active”.
